The source of these data is patent US20250120922A1, “COMPOSITION FOR IMPROVING COW REPRODUCTIVE ABILITY” (SOLOMON CO., LTD., priority 2022, published 2025).

Where “and” joins values, the source holds several entries; their conditions need not be identical. Identical values can stand only once.

The test system of the experiment is cows after calving. The experiment is described as follows: Effect of improving cow reproductive ability (first return to estrus after calving, composition mounted on the leash). The experiment is classed as in vivo. The conditions noted are these: for First return to estrus day after calving: leash mounting type, 3 heads. The text has this:
The mixture was poured into a wax tray and completely hardened to prepare a composition for improving cow reproductive ability.
By using the composition prepared in Example 2, the effect of improving the cow reproductive ability was confirmed after being mounted on the leash of cows after calving. The first return to estrus after calving was generally known to be 60 to 90 days, and in the experiment, confirmed to be average 84.20±6.64 in the case of cow used as a control group.

Consider `Cc1ccc(O)cc1` [p-cresol], for which the “First return to estrus day after calving” value was 46 ± 4 days (1% p-cresol in paraffin wax block); 28 days and 28 ± 4 days (5% p-cresol in paraffin wax block). The “Return of estrus earlier than the earliest normal return time of estrus (approximately 45 days after calving)” value (5% p-cresol pheromone block) is reported as “about 17 days”.
